Reference: paper PMC9734138, “Structure of the AlgKX modification and secretion complex required for alginate production and biofilm attachment in Pseudomonas aeruginosa” (Nature Communications, 2022)
Values joined by “and” are separate entries in the source; they are usually repeats but may differ in a detail not shown here. Identical values can stand only once.

How the values were obtained:
AlgKPp [1] = target: T1, AlgKPp (Pseudomonas putida, UniProt Q88NC7); experiment: Direct nanoESI-MS binding assay of the single proteins with reference protein correction for nonspecific binding, 200 mM aqueous ammonium acetate pH 7, 25 °C by the table title (21 °C in the methods).; parameters: gene algK; conditions: read-out: Ka (M^-1) (AlgKPp); Ka (M^-1) (AlgXPp)
Experimental: (§1) AlgXPp and AlgKPp stock solutions were buffer exchanged into 200 mM aqueous ammonium acetate (pH 7) using a 10 kDa cut-off Amicon 0.5 mL microconcentrators (EMD, Millipore, Billerica, MA). Stock solutions of oligosaccharides were prepared by dissolving a known amount of solid compound in Milli-Q water and stored at −20 °C until used. Nanoelectrospray (nanoESI) mass spectrometry measurements were performed on a Q Exactive Orbitrap (Orbitrap) mass spectrometer (Thermo Fisher Scientific, Bremen, Germany) and on a Q Exactive Ultra-High Mass Range Orbitrap mass spectrometer (Thermo Fisher Scientific, Bremen, Germany), both equipped with a nanoflow ESI source. NanoESI was performed by applying a voltage of ~0.8 kV to a platinum wire inserted into the nanoESI tip, which was produced from a borosilicate glass capillary (1.0 mm o.d., 0.78 mm i.d.) pulled to ~2 μm o.d. using a P − 1000 micropipette puller (Sutter Instruments, Novato, CA). The inlet capillary of the MS was heated to 120 °C, the S-lens RF level was set at 100, automatic gain control target was set at 1 × 10^6 with a maximum injection time of 200 ms. All MS data were acquired and processed using Thermo Xcalibur 4.1 software.
(§2) Association constants (Ka,kL and Ka,xL) for interactions of AlgKPp and AlgXPp with oligosaccharide ligands were obtained using the direct ESI-MS assay[68],[69]. The binding measurements were carried out at 21 °C, and the equilibrium mixtures were prepared by mixing aliquots of the stock solutions of proteins and ligands in aqueous ammonium acetate (200 mM). ESI-MS measurements were performed after a 1 h incubation time period. All mass spectra were corrected, when needed, for the occurrence of nonspecific carbohydrate-protein binding during the ESI process using the reference protein method. Ka,kL and Ka,xL values were determined from the abundance ratio (R) of the ligand-bound (PL) to free protein (P) ions (P can be AlgKPp or AlgXPp), after correction for nonspecific ligand binding, and the initial concentrations of protein ([P]0) and ligand ([L]0), Eq. (1):1 R/R+1=KaP0+KaL0+1−(1−KaL0+KaP0)^2+4KaL0/2KaP0 where R is taken to be equal to the corresponding equilibrium concentration ratio ([PL]/[P]) in solution, Eq. (2):2 R=∑Ab(PL)/∑Ab(P)=[PL]/[P] and Ka is Ka,kL or Ka,xL.

AlgXPp [2] = target: T2, AlgXPp (Pseudomonas putida, UniProt Q88ND0); experiment: Direct ESI-MS alginate binding assay, AlgXPp; parameters: His6 (C); made in house; host or cells: E. coli Lemo21 (DE3); conditions: 200 mM aqueous ammonium acetate, pH 7, 25 °C, errors one standard deviation
Experimental: (§3) AlgXPp and AlgKPp stock solutions were buffer exchanged into 200 mM aqueous ammonium acetate (pH 7) using a 10 kDa cut-off Amicon 0.5 mL microconcentrators (EMD, Millipore, Billerica, MA). Stock solutions of oligosaccharides were prepared by dissolving a known amount of solid compound in Milli-Q water and stored at −20 °C until used. Nanoelectrospray (nanoESI) mass spectrometry measurements were performed on a Q Exactive Orbitrap (Orbitrap) mass spectrometer (Thermo Fisher Scientific, Bremen, Germany) and on a Q Exactive Ultra-High Mass Range Orbitrap mass spectrometer (Thermo Fisher Scientific, Bremen, Germany), both equipped with a nanoflow ESI source. […]
(§4) Association constants (Ka,kL and Ka,xL) for interactions of AlgKPp and AlgXPp with oligosaccharide ligands were obtained using the direct ESI-MS assay[68],[69]. […] Ka,kL and Ka,xL values were determined from the abundance ratio (R) of the ligand-bound (PL) to free protein (P) ions (P can be AlgKPp or AlgXPp), after correction for nonspecific ligand binding, and the initial concentrations of protein ([P]0) and ligand ([L]0), Eq. (1):1 R/R+1=KaP0+KaL0+1−(1−KaL0+KaP0)^2+4KaL0/2KaP0 where R is taken to be equal to the corresponding equilibrium concentration ratio ([PL]/[P]) in solution, Eq. (2):2 R=∑Ab(PL)/∑Ab(P)=[PL]/[P] and Ka is Ka,kL or Ka,xL.
Target sequence in this assay (Q88ND0 25-479): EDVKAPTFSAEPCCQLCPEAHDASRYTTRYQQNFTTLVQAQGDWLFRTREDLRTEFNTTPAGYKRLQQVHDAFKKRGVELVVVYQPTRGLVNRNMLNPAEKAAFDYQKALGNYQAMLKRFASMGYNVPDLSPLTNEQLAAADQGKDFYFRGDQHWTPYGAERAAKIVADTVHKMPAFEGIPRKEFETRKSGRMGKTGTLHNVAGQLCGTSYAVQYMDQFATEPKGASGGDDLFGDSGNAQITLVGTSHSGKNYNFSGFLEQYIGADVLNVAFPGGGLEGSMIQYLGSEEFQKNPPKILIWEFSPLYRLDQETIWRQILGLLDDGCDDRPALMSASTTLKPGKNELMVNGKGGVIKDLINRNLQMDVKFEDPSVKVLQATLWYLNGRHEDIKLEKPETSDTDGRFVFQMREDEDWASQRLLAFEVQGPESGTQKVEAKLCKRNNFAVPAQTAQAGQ

AlgKXPp = AlgKXPp (Pseudomonas putida, UniProt Q88NC7+Q88ND0); experiment: NanoESI-MS ligand titration of the AlgK-AlgX mixture, Ka,kxL fitted from the ligand-bound fraction of the complex with a coupled-equilibria model, 200 mM aqueous ammonium acetate pH 7, 25 °C by the table title (21 °C in the methods).; format: binding; conditions: n = 3; read-out: Ka (M^-1) (AlgKXPp)
Experimental: as §1
The Ka,kx for the interaction of AlgKPp and AlgXPp with the formation of AlgKXPp complex was obtained using the Slow Mixing Mode (SLOMO) ESI-MS assay. Briefly, ~2 µL of a solution of AlgXPp (5 µM) and AlgKPp (3–10 µM) was introduced into the nanoESI tip, followed by injection of 10 µL of solution of AlgXPp (5 µM) and AlgKPp (45 µM). The binding measurements were carried out at 21 °C; time-resolved mass spectra were averaged over 1 min intervals and the sum of the charge state-normalized abundances of the […] and AlgKXPp complex ions were calculated automatically using the SWARM software (https://github.com/pkitov/CUPRA-SWARM)[72]. The corrected (for response factors) abundances of AlgXPp and AlgKXPp species were used to calculate R/(R+1) values for AlgKPp (designated as L) and AlgXPp (designated as P) interaction and association constant Ka,kx was found using Eq. (1) (Ka,kx in this case designated as Ka in Eq. (1)).
(§5) 3b AlgXPpL⇌AlgXPp+L,Ka,xL=[AlgXPpL]/AlgXPp[L] 3c AlgKXPp⇌AlgKPp+AlgXPp,Ka,kx=[AlgKXPpL]/AlgKPp[AlgXPp] 3d AlgKXPpL⇌AlgKXPp+L,Ka,kxL=[AlgKXPL]/AlgKXPpLL
(§6) The corresponding mass balance equations are shown below:4a [L]0=[L]+[AlgKPpL]+[AlgXPpL]+[AlgKXPpL] 4b [AlgKPp]0=[AlgKPp]+[AlgKPpL]+[AlgKXPp]+[AlgKXPpL] 4c [AlgXPp]0=[AlgXPp]+[AlgXPpL]+[AlgKXPp]+[AlgKXPpL] where […], […], and [L]0 are initial concentrations of AlgKPp, AlgXPp, and oligosaccharide ligand L; Ka,kL, Ka,xL, and Ka,kx are association constant values determined as described above, and Ka,kxL is unknown parameter found by the fitting of the model to experimental data.

AlgXPp [3] = target: T2, AlgXPp; experiment: Direct nanoESI-MS binding assay of the single proteins with reference protein correction for nonspecific binding, 200 mM aqueous ammonium acetate pH 7, 25 °C by the table title (21 °C in the methods).; parameters: gene algX; conditions: read-out: Ka (M^-1) (AlgKPp); Ka (M^-1) (AlgXPp)
Experimental: as §1, §2
Target sequence in this assay (Q88ND0 whole entry): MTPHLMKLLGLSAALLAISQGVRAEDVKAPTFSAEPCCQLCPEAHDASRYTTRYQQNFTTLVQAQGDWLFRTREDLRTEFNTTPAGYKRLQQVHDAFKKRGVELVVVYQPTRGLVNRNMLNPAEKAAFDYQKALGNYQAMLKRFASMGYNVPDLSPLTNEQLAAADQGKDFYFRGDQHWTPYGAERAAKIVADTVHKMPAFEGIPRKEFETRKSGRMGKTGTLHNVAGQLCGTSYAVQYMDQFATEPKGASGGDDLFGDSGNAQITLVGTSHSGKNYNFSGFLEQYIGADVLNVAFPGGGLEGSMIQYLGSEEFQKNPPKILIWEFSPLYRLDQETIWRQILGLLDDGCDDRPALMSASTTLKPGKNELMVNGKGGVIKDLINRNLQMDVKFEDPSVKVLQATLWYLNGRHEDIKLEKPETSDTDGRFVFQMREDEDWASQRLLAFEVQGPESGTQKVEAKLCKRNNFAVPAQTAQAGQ

AlgKXPp complex = target: T3, AlgKXPp complex (Pseudomonas putida, UniProt Q88NC7+Q88ND0); experiment: ESI-MS alginate binding assay, AlgKXPp complex (binding model fit); conditions: for Ka (M^−1) (AlgKXPp), apparent association constant: ESI-MS, 200 mM aqueous ammonium acetate, pH 7, 25 °C, errors one standard deviation; for fraction of AlgKXPp bound to ligand: ammonium acetate (200 mM, pH 7.0), mean, n = 3
T3 construct: Induced cells containing either pET26b P. putida AlgK^33–484 or pET24b P. putida AlgX^∆Nterm; His6 (C); made in house; host or cells: E. coli BL21 (DE3) CodonPlus (AlgK) and E. coli Lemo21 (DE3) (AlgX)
Experimental: as §1, §5, §6

AlgKPp [4] = target: T1, AlgKPp; experiment: Direct ESI-MS alginate binding assay, AlgKPp; parameters: Induced cells containing either pET26b P. putida AlgK^33–484 or pET24b P. putida AlgX^∆Nterm; His6 (C); made in house; host or cells: E. coli BL21 (DE3) CodonPlus; conditions: 200 mM aqueous ammonium acetate, pH 7, 25 °C, errors one standard deviation, nb = no binding detected
Experimental: as §3, §4

AlgXPp [5] = target: T2, AlgXPp; experiment: Acetylesterase activity assay, 3-carboxyumbelliferyl acetate, AlgX; format: biochemical; parameters: His6 (C); made in house; host or cells: E. coli Lemo21 (DE3); conditions: AlgX alone; linear regression of raw values minus buffer blank vs time (s); exp1 and exp2, triplicates; Supp. Fig. 14b
Experimental: (§7) The assay was performed as previously described in refs. [19], [29] with minor modifications. Briefly, standard reactions contained 5 μM protein (AlgKPp, AlgXPp, or AlgKPp-AlgXPp complex) in 50 mM sodium HEPES pH 7.0 and 75 mM NaCl. Reactions were initiated with the addition of pNP-acetate dissolved in ethanol to 2.5 mM. Alginate substrates were added at a final concentration of 0.5 mg/mL. Alginate substrates were purified as previously described[62] from FRD1[66] and FRD462[67]. The hydrolysis and removal of an acetate group from pNP-acetate was monitored in real-time for 10 min at 405 nm for the appearance of p-nitrophenyl. The background hydrolysis rate of pNP-acetate in the absence of enzymes was measured and subtracted from reaction rates. For Supplementary Fig. 11b, a similar assay was performed as previously described in ref. [19], with minor modifications. Briefly, Briefly, standard reactions contained 5 μM protein (AlgKPp, AlgXPp, or AlgKPp-AlgXPp complex) in 50 mM sodium HEPES pH 7.0 and 75 mM NaCl. […] The hydrolysis and removal of an acetate group from 3-carboxyumbelliferyl acetate was monitored in real-time for 10 min using an excitation of 386 nm and an emission of 447 nm. The background hydrolysis rate of 3-carboxyumbelliferyl acetate in the absence of enzymes was measured and subtracted from reaction rates. Data were analysed using GraphPad Prism 9 (Dotmatics).
Target sequence in this assay (Q88ND0 25-479): as the sequence (Q88ND0 25-479) above

AlgXPp [6] = target: T2, AlgXPp; experiment: Acetylesterase activity assay, pNP-acetate, AlgXPp; format: biochemical; parameters: His6 (C); made in house; host or cells: E. coli Lemo21 (DE3); conditions: pNP-acetate pseudosubstrate; sample as labelled (AlgX alone, Man10 alone, AlgX+Man10); single technical replicates
Experimental: as §7
Target sequence in this assay (Q88ND0 25-479): as above

[7] = initial ligand concentration 50 µM
[8] = initial ligand concentration 100 µM
[9] = initial ligand concentration 155 µM
[10] = initial ligand concentration 211 µM
[11] = initial ligand concentration 265 µM
[12] = initial ligand concentration 322 µM

T3 sequence (Q88ND0 25-479): as above
T3 sequence (Q88NC7 33-484): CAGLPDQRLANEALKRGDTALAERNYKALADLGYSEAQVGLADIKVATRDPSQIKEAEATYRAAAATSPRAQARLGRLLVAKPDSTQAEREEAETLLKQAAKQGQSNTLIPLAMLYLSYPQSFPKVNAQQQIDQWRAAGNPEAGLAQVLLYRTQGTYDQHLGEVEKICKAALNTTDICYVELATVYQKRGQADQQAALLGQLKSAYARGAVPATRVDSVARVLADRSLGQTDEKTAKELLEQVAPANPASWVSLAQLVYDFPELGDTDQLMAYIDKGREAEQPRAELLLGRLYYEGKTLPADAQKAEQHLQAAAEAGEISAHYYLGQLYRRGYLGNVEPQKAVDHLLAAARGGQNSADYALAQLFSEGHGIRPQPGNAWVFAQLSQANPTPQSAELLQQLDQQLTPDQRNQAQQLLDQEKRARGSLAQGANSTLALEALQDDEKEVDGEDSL
T1 sequence (Q88NC7 33-484): as above
Sequence of AlgKXPp (Q88ND0 whole entry): as the sequence (Q88ND0 whole entry) above
Sequence of AlgKXPp (Q88NC7 33-484): as the sequence (Q88NC7 33-484) above

CCCO[C@@H]1O[C@H](C(=O)O)[C@@H](O[C@@H]2O[C@H](C(=O)O)[C@@H](O[C@@H]3O[C@H](C(=O)O)[C@@H](O[C@@H]4O[C@H](C(=O)O)[C@@H](O[C@@H]5O[C@H](C(=O)O)[C@@H](O[C@@H]6O[C@H](C(=O)O)[C@@H](O)[C@H](O)[C@@H]6O)[C@H](O)[C@@H]5O)[C@H](O)[C@@H]4O)[C@H](O)[C@@H]3O)[C@H](O)[C@@H]2O)[C@H](O)[C@@H]1O [ManA6]
Kd (AlgKPp [1]): 3.23 mM
Ka (M^−1) (AlgXPp), apparent association constant (AlgXPp [2]): (1.9 ± 0.7) × 10^2 M^−1
Kd (AlgKXPp): 1.28 mM
Kd (AlgXPp [3]): 5.26 mM
Ka (M^−1) (AlgKXPp), apparent association constant (AlgKXPp complex): (7.8 ± 0.8) × 10^2 M^−1
fraction of AlgKXPp bound to ligand (AlgKXPp complex; [7]): 0.04
fraction of AlgKXPp bound to ligand (AlgKXPp complex; [8]): 0.08
fraction of AlgKXPp bound to ligand (AlgKXPp complex; [9]): 0.11
fraction of AlgKXPp bound to ligand (AlgKXPp complex; [10]): 0.11
fraction of AlgKXPp bound to ligand (AlgKXPp complex; [11]): 0.16
fraction of AlgKXPp bound to ligand (AlgKXPp complex; [12]): 0.22
Ka (M^−1) (AlgKPp), apparent association constant (AlgKPp [4]): (3.1 ± 0.5) × 10^2 M^−1

CCCO[C@@H]1O[C@H](C(=O)O)[C@@H](O[C@@H]2O[C@H](C(=O)O)[C@@H](O[C@@H]3O[C@H](C(=O)O)[C@@H](O[C@@H]4O[C@H](C(=O)O)[C@@H](O[C@@H]5O[C@H](C(=O)O)[C@@H](O[C@@H]6O[C@H](C(=O)O)[C@@H](O[C@@H]7O[C@H](C(=O)O)[C@@H](O)[C@H](O)[C@@H]7O)[C@H](O)[C@@H]6O)[C@H](O)[C@@H]5O)[C@H](O)[C@@H]4O)[C@H](O)[C@@H]3O)[C@H](O)[C@@H]2O)[C@H](O)[C@@H]1O [ManA7]
Ka (M^−1) (AlgXPp), apparent association constant (AlgXPp [2]): (2.6 ± 0.3) × 10^2 M^−1
Ka (M^−1) (AlgKXPp), apparent association constant (AlgKXPp complex): (10 ± 1.0) × 10^2 M^−1
fraction of AlgKXPp bound to ligand (AlgKXPp complex; [7]): 0.028
fraction of AlgKXPp bound to ligand (AlgKXPp complex; [8]): 0.08
fraction of AlgKXPp bound to ligand (AlgKXPp complex; [9]): 0.15
fraction of AlgKXPp bound to ligand (AlgKXPp complex; [10]): 0.20
fraction of AlgKXPp bound to ligand (AlgKXPp complex; [11]): 0.21
fraction of AlgKXPp bound to ligand (AlgKXPp complex; [12]): 0.24
Ka (M^−1) (AlgKPp), apparent association constant (AlgKPp [4]): (4.2 ± 0.4) × 10^2 M^−1

AlgX: P. putida KT2440 AlgX 1–479, His-tagged terminal alginate acetyltransferase
slope values used in graph (AlgXPp [5]): 20818 and 20884 and 19338 and 14321 and 14083 and 15487
slope values: rate of acetylesterase activity, absorbance value at 405 nm per second (AlgXPp [6]): 5.128e-5 and 6.734e-5 and 4.103e-5
